# In patent US9695155B2, “Herbicidal substituted pyrimidinyloxy benzene compounds” (E. I. DU PONT DE NEMOURS AND COMPANY, priority 2013, dated 2017):
# Key:
# wild poinsettia = experiment: Test E preemergence; format: in vivo, Euphorbia heterophylla; settings: for Poinsettia, Wild plant response rating: scale 0 to 100 (0 no effect, 100 complete control); for Plant response rating, Poinsettia, Wild: 125 g ai/ha, scale 0 to 100, 0 no effect, 100 complete control
# Procedure, shortened: (§1)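 Response was scored visually on a 0-100 scale (100 = complete control) versus controls after 14 to 21 days in the greenhouse. Test chemicals, formulated with surfactant in a non-phytotoxic solvent mixture, had been applied preemergence to seeds in silt loam soil or postemergence to 1- to 4-leaf plants in potting medium.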
# waterhemp = experiment: Test E preemergence; format: in vivo, Amaranthus rudis; settings: for Waterhemp plant response rating: scale 0 to 100 (0 no effect, 100 complete control); for Plant response rating, Waterhemp: 125 g ai/ha, scale 0 to 100, 0 no effect, 100 complete control
# Procedure, shortened: as §1
# ragweed = experiment: Test A preemergence; format: in vivo, Ambrosia elatior; settings: 0 to 100 scale where 0 is no effect and 100 is complete control
# Procedure, shortened: (§2)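 Pre- and postemergence greenhouse screen. Soil: loam + sand. Spray carrier: solvent mixture, non-phytotoxic, with surfactant. Post timing at 1–2 leaves, height 2–10 cm. Readout: visual injury on a 0–100 scale roughly 10 days after application, untreated plants as reference.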
# Brazilian crabgrass = experiment: Test E preemergence; format: in vivo, Digitaria horizontalis; settings: for Crabgrass, Brazil plant response rating: scale 0 to 100 (0 no effect, 100 complete control); for Plant response rating, Crabgrass, Brazil: 125 g ai/ha, scale 0 to 100, 0 no effect, 100 complete control
# Procedure, shortened: as §1
# kochia [1] = experiment: Test A postemergence; format: in vivo, Kochia scoparia; settings: for Kochia plant response rating: 125 g ai/ha
# Procedure, shortened: as §2
# goosegrass = experiment: Test E preemergence; format: in vivo, Eleusine indica; settings: for Goosegrass plant response rating: scale 0 to 100 (0 no effect, 100 complete control); for Plant response rating, Goosegrass: 125 g ai/ha, scale 0 to 100, 0 no effect, 100 complete control
# Procedure, shortened: as §1
# hairy beggarticks = experiment: Test E preemergence; format: in vivo, Bidens pilosa; settings: preemergence; for Beggarticks plant response rating: scale 0 to 100 (0 no effect, 100 complete control); for Plant response rating, Beggarticks: 125 g ai/ha, scale 0 to 100, 0 no effect, 100 complete control
# Procedure, shortened: as §1
# kochia [2] = experiment: Test E preemergence; format: in vivo, Kochia scoparia; settings: for Kochia plant response rating: scale 0 to 100 (0 no effect, 100 complete control); for Plant response rating, Kochia: 125 g ai/ha, scale 0 to 100, 0 no effect, 100 complete control
# Procedure, shortened: as §1
# lambsquarters = experiment: Test E preemergence; format: in vivo, Chenopodium album; settings: for Lambsquarters plant response rating: scale 0 to 100 (0 no effect, 100 complete control); for Plant response rating, Lambsquarters: 125 g ai/ha, scale 0 to 100, 0 no effect, 100 complete control
# Procedure, shortened: as §1
# yellow nutsedge = experiment: Test E preemergence; format: in vivo, Cyperus esculentus; settings: for Nutsedge, Yellow plant response rating: scale 0 to 100 (0 no effect, 100 complete control); for Plant response rating, Nutsedge, Yellow: 125 g ai/ha, scale 0 to 100, 0 no effect, 100 complete control
# Procedure, shortened: as §1
# field bindweed = experiment: Test E preemergence; format: in vivo, Convolvulus arvensis; settings: for Field Bindweed plant response rating: scale 0 to 100 (0 no effect, 100 complete control); for Plant response rating, Field Bindweed: 125 g ai/ha, scale 0 to 100, 0 no effect, 100 complete control
# Procedure, shortened: as §1
# Italian ryegrass = experiment: Test A postemergence; format: in vivo, Lolium multiflorum; settings: for Ryegrass, Italian plant response rating: 125 g ai/ha
# Procedure, shortened: as §2
# [3] = 0 to 100 scale where 0 is no effect and 100 is complete control
# [4] = 500 g ai/ha, 0 to 100 scale where 0 is no effect and 100 is complete control
# [5] = 31 g ai/ha, 0 to 100 scale, 0 no effect, 100 complete control
structure (smiles),measurement,setting,value
"FC(F)(F)COc1cnn(-c2ccccc2Oc2ncc(Cl)cn2)c1 [Compound 138, 5-chloro-2-[2-[4-(2,2,2-trifluoroethoxy)-1H-pyrazol-1-yl]phenoxy]pyrimidine]","Poinsettia, Wild plant response rating",wild poinsettia; 16 g ai/ha,0
same,"Poinsettia, Wild plant response rating",wild poinsettia; 31 g ai/ha,25
same,"Poinsettia, Wild plant response rating",wild poinsettia; 62 g ai/ha,35
same,"Plant response rating, Poinsettia, Wild",wild poinsettia,25
same,Waterhemp plant response rating,waterhemp; 16 g ai/ha,0
same,Waterhemp plant response rating,waterhemp; 31 g ai/ha,100
same,Waterhemp plant response rating,waterhemp; 62 g ai/ha,90
same,"Plant response rating, Waterhemp",waterhemp,100
same,"Plant response rating, Ragweed",ragweed; 125 g ai/ha,30
same,Ragweed plant response rating,ragweed; 500 g ai/ha,60
same,"Crabgrass, Brazil plant response rating",Brazilian crabgrass; 16 g ai/ha,0
same,"Crabgrass, Brazil plant response rating",Brazilian crabgrass; 31 g ai/ha,40
same,"Crabgrass, Brazil plant response rating",Brazilian crabgrass; 62 g ai/ha,90
same,"Plant response rating, Crabgrass, Brazil",Brazilian crabgrass,98
same,Kochia plant response rating,kochia [1]; [3],90
same,"Plant response rating, Kochia",kochia [1]; [4],100
same,Goosegrass plant response rating,goosegrass; 16 g ai/ha,10
same,Goosegrass plant response rating,goosegrass; 31 g ai/ha,30
same,Goosegrass plant response rating,goosegrass; 62 g ai/ha,50
same,"Plant response rating, Goosegrass",goosegrass,70
same,Beggarticks plant response rating,hairy beggarticks; 16 g ai/ha,0
same,Beggarticks plant response rating,hairy beggarticks; 31 g ai/ha,0
same,Beggarticks plant response rating,hairy beggarticks; 62 g ai/ha,0
same,"Plant response rating, Beggarticks",hairy beggarticks,0
same,Kochia plant response rating,kochia [2]; 16 g ai/ha,60
same,Kochia plant response rating,kochia [2]; 31 g ai/ha,75
same,Kochia plant response rating,kochia [2]; 62 g ai/ha,90
same,"Plant response rating, Kochia",kochia [2],100
same,Lambsquarters plant response rating,lambsquarters; 16 g ai/ha,0
same,Lambsquarters plant response rating,lambsquarters; 31 g ai/ha,50
same,Lambsquarters plant response rating,lambsquarters; 62 g ai/ha,100
same,"Plant response rating, Lambsquarters",lambsquarters,100
same,"Nutsedge, Yellow plant response rating",yellow nutsedge; 16 g ai/ha,0
same,"Nutsedge, Yellow plant response rating",yellow nutsedge; 31 g ai/ha,10
same,"Nutsedge, Yellow plant response rating",yellow nutsedge; 62 g ai/ha,15
same,"Plant response rating, Nutsedge, Yellow",yellow nutsedge,40
same,Field Bindweed plant response rating,field bindweed; 16 g ai/ha,0
same,Field Bindweed plant response rating,field bindweed; 31 g ai/ha,20
same,Field Bindweed plant response rating,field bindweed; 62 g ai/ha,40
same,"Plant response rating, Field Bindweed",field bindweed,50
same,"Ryegrass, Italian plant response rating",Italian ryegrass; [3],40
same,"Plant response rating, Ryegrass, Italian",Italian ryegrass; [4],90
N#Cc1cnn(-c2c(CF)cccc2Oc2ncc(F)cn2)c1 [Compound 151],"Poinsettia, Wild plant response rating",wild poinsettia; 31 g ai/ha,60
same,"Poinsettia, Wild plant response rating",wild poinsettia; 62 g ai/ha,100
same,"Plant response rating, Poinsettia, Wild",wild poinsettia,100
same,Waterhemp plant response rating,waterhemp; 31 g ai/ha,75
same,Waterhemp plant response rating,waterhemp; 62 g ai/ha,98
same,"Plant response rating, Waterhemp",waterhemp,100
same,"Plant response rating, Ragweed","ragweed; 31 g ai/ha, visual, approximately 10 days",20
same,"Plant response rating, Ragweed",ragweed; 125 g ai/ha,80
same,"Crabgrass, Brazil plant response rating",Brazilian crabgrass; 16 g ai/ha,0
same,"Crabgrass, Brazil plant response rating",Brazilian crabgrass; 31 g ai/ha,35
same,"Crabgrass, Brazil plant response rating",Brazilian crabgrass; 62 g ai/ha,70
same,"Plant response rating, Crabgrass, Brazil",Brazilian crabgrass,75
same,"Plant response rating, Kochia",kochia [1]; [5],60
same,Kochia plant response rating,kochia [1]; [3],90
same,Goosegrass plant response rating,goosegrass; 31 g ai/ha,0
same,Goosegrass plant response rating,goosegrass; 62 g ai/ha,70
same,"Plant response rating, Goosegrass",goosegrass,85
same,Beggarticks plant response rating,hairy beggarticks; 16 g ai/ha,65
same,Beggarticks plant response rating,hairy beggarticks; 31 g ai/ha,65
same,Beggarticks plant response rating,hairy beggarticks; 62 g ai/ha,95
same,"Plant response rating, Beggarticks",hairy beggarticks,100
same,Kochia plant response rating,kochia [2]; 31 g ai/ha,80
same,Kochia plant response rating,kochia [2]; 62 g ai/ha,90
same,"Plant response rating, Kochia",kochia [2],100
same,Lambsquarters plant response rating,lambsquarters; 31 g ai/ha,100
same,Lambsquarters plant response rating,lambsquarters; 62 g ai/ha,100
same,"Plant response rating, Lambsquarters",lambsquarters,100
same,"Nutsedge, Yellow plant response rating",yellow nutsedge; 31 g ai/ha,0
same,"Nutsedge, Yellow plant response rating",yellow nutsedge; 62 g ai/ha,0
same,"Plant response rating, Nutsedge, Yellow",yellow nutsedge,0
same,Field Bindweed plant response rating,field bindweed; 16 g ai/ha,0
same,Field Bindweed plant response rating,field bindweed; 31 g ai/ha,0
same,Field Bindweed plant response rating,field bindweed; 62 g ai/ha,20
same,"Plant response rating, Field Bindweed",field bindweed,35
same,"Plant response rating, Ryegrass, Italian",Italian ryegrass; [5],0
same,"Ryegrass, Italian plant response rating",Italian ryegrass; [3],30
